US20130267494A1, “1,4-OXAZEPANE DERIVATIVES” (priority 2010, published 2013)
Where a name gives a salt, the structure may show the parent alone.

Assays:
[1] = target: T1, human dopamine transporter (Homo sapiens, UniProt Q01959); experiment: Inhibitory action on human dopamine transporter ([3H]-dopamine uptake in CHO cells); assay type: cell-based; settings: CHO, relative to inhibitory activity of 100 μM Nomifensine as 100%, read-out: inhibitory rate (%); for inhibition at 1 µM: compound 1 μM
T1 construct: expressed in transfected cells
T1 sequence (Q01959 whole entry): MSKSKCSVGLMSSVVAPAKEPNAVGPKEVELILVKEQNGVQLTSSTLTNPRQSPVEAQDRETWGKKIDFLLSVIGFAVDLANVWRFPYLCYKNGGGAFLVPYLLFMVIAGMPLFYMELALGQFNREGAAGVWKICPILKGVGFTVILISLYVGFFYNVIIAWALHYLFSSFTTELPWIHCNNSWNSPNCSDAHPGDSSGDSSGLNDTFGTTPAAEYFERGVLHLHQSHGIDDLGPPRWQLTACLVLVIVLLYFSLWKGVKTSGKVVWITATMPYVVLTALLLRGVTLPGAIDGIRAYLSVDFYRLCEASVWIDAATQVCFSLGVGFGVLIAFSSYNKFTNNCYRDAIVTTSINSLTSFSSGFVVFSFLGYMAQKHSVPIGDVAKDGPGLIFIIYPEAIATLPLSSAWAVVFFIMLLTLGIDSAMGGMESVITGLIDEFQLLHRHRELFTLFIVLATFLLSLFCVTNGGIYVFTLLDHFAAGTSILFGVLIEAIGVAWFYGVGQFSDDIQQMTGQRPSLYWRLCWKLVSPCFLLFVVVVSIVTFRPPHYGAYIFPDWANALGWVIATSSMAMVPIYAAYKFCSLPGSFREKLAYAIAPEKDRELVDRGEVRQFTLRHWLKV
How it was run: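 CHO-K1 cells stably expressing human dopamine transporter, exposed to compound at 10 μM or 1 μM in HEPES-buffered saline with 0.5% BSA. [3H]-dopamine uptake measured over 60 min by scintillation counting. Activity expressed relative to 100 μM nomifensine as 100%.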

SD female rats = experiment: Measurement of urethral resistance increasing effect (leak point pressure, oral administration); assay type: in vivo, rat
Experimental: The urethral resistance increasing effect in rat was measured by a modified method of Matsumoto et al. (WO2009/063992) as follows. That is, SD female rats (CLEA Japan, Inc.) were anesthetized with isoflurane (1.0%; Abbott), and the spinal cord was transected at Th8-9 to avoid the voiding reflex. After laparotomy, an intravesical pressure measurement catheter and a saline infusion catheter (PE-100; Clay Adams) were inserted into the bladder. Thereafter, the abdomen of the rat was closed with aronalpha A “Sankyo” (Daiichi Sankyo). The rat with an inserted catheter was placed in a Bollman cage (KN-326 Bollman cage TYPE III; Natsume). The intravesical pressure measurement catheter was connected to a computer via a pressure transducer (DX-100; Nihon Koden), an amplifier (RPM-6008M; Nihon Koden/303638; SAN-EI), and a multi-channel data analyzer (MP150/MP100; Biopack), and changes in the intravesical pressure were recorded on a hard disc at a frequency of 100 samples/sec. The saline infusion catheter was connected to a 50 mL syringe (Terumo) filled with saline colored with Evans Blue (Wako). The saline was infused into the bladder from the 50 mL syringe filled with saline at a rate of 0.1 mL/sec by using an infusion pump (Kds100; KD Scientific). When the saline leaked from the urethral orifice, infusion was discontinued, and the saline in the bladder was released. The maximum pressure observed during infusion of saline into the bladder and leakage thereof was taken as an LPP (Leak point pressure) value. The measurement was repeated until the LPP value was stabilized, and an average of continuous three stable LPP values was taken as the result. In addition, the measurement of drug effect was started 1 hr after the animal was placed in the Bollman cage. The LPP value (Pre value) was measured, a drug was orally administered, and the measurement of LPP value (Post value) was again started 15 min, 30 min, 1 hr, 2 hr and 4 hr after administration. The urethral resistance increasing effect by the drug was shown by the difference between the LPP value (Post value) and LPP value (Pre value). The drug was orally administered at 2.0 mL/kg, using 0.5% methylcellulose as a vehicle. For detection of a significant difference in the urethral resistance increasing effect by the drug as compared to the vehicle, the following method was used. For comparison of 3 or more groups, the Williams' test was used for a parametric test, and the Shirley-Williams' test was used for a non-parametric test. For comparison of 2 groups, the Student's t-test was used for a parametric test, and the […] was used for a non-parametric test.

Structure (SMILES) | inhibition at 1 µM [1] | inhibition at 10 µM ([1]; compound 10 μM) | urethral resistance increasing effect (cmH2O) (SD female rats; 1.0 mg/kg oral, 15 min later) | urethral resistance increasing effect (cmH2O) (SD female rats; 1.0 mg/kg oral, 30 min later) | urethral resistance increasing effect (cmH2O) (SD female rats; 3.0 mg/kg oral, 15 min later) | urethral resistance increasing effect (cmH2O) (SD female rats; 3.0 mg/kg oral, 30 min later) | urethral resistance increasing effect (cmH2O) (SD female rats; 10.0 mg/kg oral, 15 min later) | urethral resistance increasing effect (cmH2O) (SD female rats; 10.0 mg/kg oral, 30 min later) | urethral resistance increasing effect (cmH2O) (SD female rats; 0.3 mg/kg oral, 15 min later) | urethral resistance increasing effect (cmH2O) (SD female rats; 0.3 mg/kg oral, 30 min later)
CC(=O)NC[C@H]1CNCCO[C@@H]1c1ccc(Cl)c(Cl)c1 (racemic) [Example 6, N-{[(6RS,7SR)-7-(3,4-dichlorophenyl)-1,4-oxazepan-6-yl]methyl}acetamide monohydrochloride] | 33% | 84% | – | – | – | – | – | – | – | –
O=c1[nH]c(-c2cccn(C[C@@H]3CNCCO[C@H]3c3ccc(Cl)c(Cl)c3)c2=O)no1 [Example 31, 1-{[(6S,7R)-7-(3,4-dichlorophenyl)-1,4-oxazepan-6-yl]methyl}-3-(5-oxo-4,5-dihydro-1,2,4-oxadiazol-3-yl)pyridin-2(1H)-one monohydrochloride] | 33% | – | 6.7 ± 2.5 cmH2O | 9.0 ± 3.8 cmH2O | 13.2 ± 3.8 cmH2O | 14.5 ± 3.6 cmH2O | 16.2 ± 2.1 cmH2O | 14.3 ± 2.2 cmH2O | – | –
CC(=O)NC[C@@H]1CNCCO[C@H]1c1ccc(Cl)c(Cl)c1 [Example 32, N-{[(6S,7R)-7-(3,4-dichlorophenyl)-1,4-oxazepan-6-yl]methyl}acetamide 0.5 fumarate] | 34% | – | – | – | – | – | 18.3 ± 2.1 cmH2O | 17.1 ± 3.2 cmH2O | – | –
COCC(=O)NC[C@@H]1CNCCO[C@H]1c1ccc(Cl)c(Cl)c1 [Example 33, N-{[(6S,7R)-7-(3,4-dichlorophenyl)-1,4-oxazepan-6-yl]methyl}-2-methoxyacetamide monohydrochloride] | 35% | – | – | – | – | – | 21.8 ± 3.3 cmH2O | 20.9 ± 3.4 cmH2O | – | –
CC(=O)N[C@@H]1CNCCO[C@H]1c1ccc(Cl)c(Cl)c1 [Example 36, N-[(6R,7S)-7-(3,4-dichlorophenyl)-1,4-oxazepan-6-yl]acetamide monofumarate] | 53% | – | – | – | – | – | 15.0 ± 1.8 cmH2O | 14.3 ± 1.8 cmH2O | – | –
NS(=O)(=O)N[C@@H]1CNCCO[C@H]1c1ccc(Cl)c(Cl)c1 [Example 37, N-[(6R,7S)-7-(3,4-dichlorophenyl)-1,4-oxazepan-6-yl]sulfamide monohydrochloride] | 51% | – | – | – | 8.5 ± 1.4 cmH2O | 7.6 ± 1.6 cmH2O | 16.3 ± 1.2 cmH2O | 17.2 ± 1.9 cmH2O | – | –
COCC(=O)NC[C@@H]1CNCCO[C@H]1c1ccc(Cl)c(F)c1 [Example 38, N-{[(6S,7R)-7-(4-chloro-3-fluorophenyl)-1,4-oxazepan-6-yl]methyl}-2-methoxyacetamide monohydrochloride] | 11% | – | 12.9 ± 3.3 cmH2O | 9.3 ± 1.6 cmH2O | 18.0 ± 2.5 cmH2O | 17.4 ± 2.4 cmH2O | 21.6 ± 2.9 cmH2O | 21.3 ± 3.3 cmH2O | 4.2 ± 1.7 cmH2O | 5.1 ± 1.7 cmH2O
